Measurements as given in patent publication US11673901B2, “Polycyclic compounds as allosteric SHP2 inhibitors” (Revolution Medicines, Inc., priority 2017, dated 2023).
pIC50: −log10 of the molar value.

Target: SHP2 (Homo sapiens (Human), UniProt Q06124)
Test: SHP2 allosteric inhibition assay (DiFMUP prompt fluorescence)
Assay type: biochemical
Conditions: 0.2 nM SHP2 activated with 0.5 μM Activating Peptide 1 or 2; substrate DiFMUP; Table 2, class symbols
Outline: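 0.2 nM SHP2 was preincubated 30-60 min at 25° C with 0.5 μM bis-phosphotyrosyl activating peptide and compound (0.00005-10 μM) in 50 mM HEPES pH 7.2, 100 mM NaCl, 0.5 mM EDTA, 0.05% P-20, 1 mM DTT. DiFMUP hydrolysis was read kinetically (ex 340/em 450 nm); IC50 came from normalized fits of initial rates.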

| SMILES | pIC50 |
| --- | --- |
| COc1cccc(-c2c(C)nc(N3CCC4(CC3)C[C@@H](OC3COC3)C[C@H]4N)n3ccnc23)c1Cl [Compound 64, (2R,4R)-8-[8-(2-chloro-3-methoxy-phenyl)-7-methyl-imidazo[1,2-c]pyrimidin-5-yl]-2-(oxetan-3-yloxy)-8-azaspiro[4.5]decan-4-amine] | ≥ 7.30 |
| C[C@@H]1OCC2(CCN(c3cnc(Sc4ccnc(N)c4Cl)c4nccn34)CC2)[C@@H]1N [Compound 65, (3S,4S)-8-{8-[(2-amino-3-chloropyridin-4-yl)sulfanyl]imidazo[1,2-a]pyrazin-5-yl}-3-methyl-2-oxa-8-azaspiro[4.5]decan-4-amine] | < 6.30 |
| NC(=O)CNc1ncc(Sc2ccnc(N)c2Cl)c2nccn12 [Compound 66, 2-({8-[(2-amino-3-chloropyridin-4-yl)sulfanyl]imidazo[1,2-c]pyrimidin-5-yl}amino)acetamide] | < 6.30 |
| Nc1nccc(Sc2cnc(N3CCOCC3)n3ccnc23)c1Cl [Compound 68] | < 6.30 |
| Nc1nccc(Sc2cnc(NCCO)n3ccnc23)c1Cl [Compound 73] | < 6.30 |
| C[C@H](O)CNc1ncc(Sc2ccnc(N)c2Cl)c2nccn12 [Compound 74] | < 6.30 |
| Nc1nccc(Sc2cnc(N3CCC(c4ncc[nH]4)CC3)n3ccnc23)c1Cl [Compound 78] | < 6.30 |
| CC1(O)CCN(c2ncc(Sc3ccnc(N)c3Cl)c3nccn23)CC1 [Compound 79] | < 6.30 |
| Nc1nccc(Sc2cnc(N[C@H]3CC[C@@H](O)C3)n3ccnc23)c1Cl [Compound 80] | < 6.30 |
| Nc1nccc(Sc2cnc(O[C@H]3CC[C@@H](N)C3)n3ccnc23)c1Cl [Compound 81, 4-[(5-{[(1S,3R)-3-aminocyclopentyl]oxy}imidazo[1,2-c]pyrimidin-8-yl)sulfanyl]-3-chloropyridin-2-amine] | < 6.30 |
| C[C@@H]1OCC2(CCN(c3nc4[nH]nc(-c5cccc(Cl)c5Cl)c4c4nccn34)CC2)[C@@H]1N [Compound 83, (3S,4S)-8-[12-(2,3-dichlorophenyl)-3,6,8,10,11-pentaazatricyclo[7.3.0.0^2,6]dodeca-1(12),2,4,7,9-pentaen-7-yl]-3-methyl-2-oxa-8-azaspiro[4.5]decan-4-amine] | ≥ 7.30 |

Other lines, results leading:

| pIC50 | SMILES |
| --- | --- |
| < 6.30 | Nc1nccc(Sc2cnc(N3CCC[C@H]3CO)n3ccnc23)c1Cl [Compound 67] |
| < 6.30 | Nc1nccc(Sc2cnc(N3CCC[C@@H]3CO)n3ccnc23)c1Cl [Compound 72] |
| < 6.30 | Nc1nccc(Sc2cnc(N3CC(O)C3)n3ccnc23)c1Cl [Compound 75] |
| < 6.30 | Nc1nccc(Sc2cnc(N3CC[C@H](O)C3)n3ccnc23)c1Cl [Compound 76] |
| < 6.30 | Nc1nccc(Sc2cnc(N3CC[C@@H](O)C3)n3ccnc23)c1Cl [Compound 77] |
